# Tests used:
# [1] = test system: A. baumannii ATCC 12457; assay: microbe, parasite or virus in culture
# Method: (§1) The MIC for ampicillin or gentamicin against each isolate was determined for each test to serve as an internal quality control. The MICs of isolates were determined by visual reading and using an EnSpire Multimode Plate Reader 2300 atA600nm.
# (§2) Briefly, antimicrobial stock solutions for robenidine and PMBN were prepared at a concentration of 12.8 mg/ml in DMSO. […] A 1 μl aliquot of the first compound from each combination was dispensed along the abscissa (from row A to G) of the 96-well microplate, while the second compound was dispensed along the ordinate (from column 12 to column 3) using an electronic multichannel pipette followed by 89 μl of LB broth. Each well of the plate was inoculated with an aliquot of 10 μl bacterial suspension at a concentration of 1-5 × 10^6 colony forming units (CFU) per ml. Subsequently, the plate was incubated at 37°C for 24 h. The fractional inhibitory concentration index (FICI) described the results of the combinations, and was calculated utilizing the following formula:
# (§3) DRI = MIC of drug alone/MIC of drug in combination
# [2] = test system: A. baumannii ATCC 19606; assay: microbe, parasite or virus in culture
# Method: as §1, §2, §3
# [3] = test system: A. calcoaceticus (human clinical isolate); assay: microbe, parasite or virus in culture
# Method: as §1, §2, §3
# [4] = test system: E. coli ATCC 11229; assay: microbe, parasite or virus in culture
# Method: as §1, §2, §3
# [5] = test system: E. coli ATCC 25922; assay: microbe, parasite or virus in culture
# Method: as §1, §2, §3
# [6] = test system: K. pneumoniae ATCC 13883; assay: microbe, parasite or virus in culture
# Method: as §1, §2, §3
# [7] = test system: P. aeruginosa ATCC 27853; assay: microbe, parasite or virus in culture
# Method: as §1, §2, §3
# [8] = test system: P. mirabilis ATCC 43071; assay: microbe, parasite or virus in culture
# Method: as §1, §2, §3
# [9] = test system: P. putida ATCC 17428; assay: microbe, parasite or virus in culture
# Method: as §1, §2, §3
# [10] = test system: P. aeruginosa (n = 30) clinical isolates from otitis externa cases in dogs; assay: MIC/MBC and checkerboard, canine otitis externa isolates; format: cell-based, Pseudomonas aeruginosa
# Source text: (§4) Escherichia coli ATCC 25922, E. coli ATCC 11229, P. aeruginosa ATCC 27853, P. aeruginosa PA01, Pseudomonas putida ATCC 17428, P. mirabilis ATCC 43071, K. pneumoniae ATCC 13883, A. baumannii ATCC 19606, and A. baumannii ATCC 12457 were used for preliminary susceptibility testing and combination experiments. S. aureus ATCC 29213 and S. pneumoniae ATCC 49619 were used as internal quality controls. A variety of bacterial organisms from both human and canine infections were investigated in this study (n = 119 isolates in total). Twenty-eight clinical Acinetobacter spp. isolates were obtained from cases of human skin and soft tissue infections, including 18 Acinetobacter baumannii and 10 A. calcoaceticus, kindly provided by a person (Institute of Medical and Veterinary Science, South Australia). […] Ninety-one clinical isolates were obtained from cases of canine otitis externa, including seven methicillin-susceptible S. pseudintermedius (MSSP), 13 multidrug- and methicillin-resistant S. pseudintermedius (MRSP) ([Saputra et al., 2017]), 20 beta-haemolytic Streptococcus spp., 30 P. aeruginosa (10 of them resistant to gentamicin and 21 P. mirabilis isolates). These isolates were obtained from the bacterial collection of the national survey of antimicrobial resistance in animals conducted in Australia. Swab samples from dogs with signs of otitis externa were collected by veterinarians and submitted to government, private or university diagnostic laboratories throughout Australia. After routine bacterial identification and the removal of confidential information, the participating veterinary diagnostic laboratories submitted the bacteria and their clinical information to PC2 Laboratories, Australian Centre for Antimicrobial Resistance Ecology, School of Animal and Veterinary Sciences, University of Adelaide, Roseworthy Campus, Roseworthy, SA, Australia, for further study. Thus, animal ethics approval was not required in this study. These organisms were identified to species level using biochemical testing and MALDI-TOF mass spectrometry (Bruker, Preston, VIC, Australia).
# as §1
# (§5) Briefly, 10 μl aliquots from each duplicate well from the MIC assays (starting from the MIC for each compound) were inoculated onto a sheep blood agar (SBA) plate and incubated at 37°C.
# as §2, §3
# [11] = test system: Beta-haemolytic streptococci (n = 20) clinical isolates from otitis externa cases in dogs; assay: as above; format: cell-based, beta-haemolytic Streptococcus spp.
# Source text: as §4, §1, §5, §2, §3
# [12] = A. baumannii ATCC 12457, concentration of the labelled component
# [13] = A. baumannii ATCC 19606, concentration of the labelled component
# [14] = A. calcoaceticus human clinical isolate, concentration of the labelled component
# [15] = E. coli ATCC 11229, concentration of the labelled component
# [16] = E. coli ATCC 25922, concentration of the labelled component
# [17] = K. pneumoniae ATCC 13883, concentration of the labelled component
# [18] = P. aeruginosa ATCC 27853, concentration of the labelled component
# [19] = P. putida ATCC 17428, concentration of the labelled component
# [20] = concentration of the labelled component
smiles,measurement,setting,value
"N=C(N/N=C/c1ccc(Cl)cc1)N/N=C/c1ccc(Cl)cc1 [ROB, robenidine]",DRI EDTA:ROB,"[1]; A. baumannii ATCC 12457, DRI of the labelled component",32
same,MIC in combination EDTA:ROB,[1]; [12],2 µg/mL
same,MIC in combination PMBN:ROB,[1]; [12],2 µg/mL
same,MIC,"[1]; Acinetobacter baumannii, ATCC12457, read-out: MIC, single drug",64 µg/mL
same,DRI EDTA:ROB,"[2]; A. baumannii ATCC 19606, DRI of the labelled component",8
same,MIC in combination EDTA:ROB,[2]; [13],4 µg/mL
same,MIC in combination PMBN:ROB,[2]; [13],2 µg/mL
same,MIC,"[2]; Acinetobacter baumannii, ATCC19606, read-out: MIC, single drug",32 µg/mL
same,DRI EDTA:ROB,"[3]; A. calcoaceticus human clinical isolate, DRI of the labelled component",32
same,MIC in combination EDTA:ROB,[3]; [14],0.125 µg/mL
same,MIC in combination PMBN:ROB,[3]; [14],0.5 µg/mL
same,MIC,"[3]; Acinetobacter calcoaceticus, read-out: MIC, single drug",4 µg/mL
same,"MIC, single drug",[4]; E. coli ATCC 11229,>256 µg/mL
same,DRI EDTA:ROB,"[4]; E. coli ATCC 11229, DRI of the labelled component",32
same,MIC in combination EDTA:ROB,[4]; [15],8 µg/mL
same,MIC in combination PMBN:ROB,[4]; [15],8 µg/mL
same,MIC,"[4]; Escherichia coli, ATCC11229, read-out: MIC, single drug",> 256 µg/mL
same,"MIC, single drug",[5]; E. coli ATCC 25922,>256 µg/mL
same,DRI EDTA:ROB,"[5]; E. coli ATCC 25922, DRI of the labelled component",64
same,MIC in combination EDTA:ROB,[5]; [16],4 µg/mL
same,MIC in combination PMBN:ROB,[5]; [16],8 µg/mL
same,MIC,"[5]; Escherichia coli, ATCC25922, read-out: MIC, single drug",> 256 µg/mL
same,"MIC, single drug",[6]; K. pneumoniae ATCC 13883,>256 µg/mL
same,DRI EDTA:ROB,"[6]; K. pneumoniae ATCC 13883, DRI of the labelled component",2
same,MIC in combination EDTA:ROB,[6]; [17],128 µg/mL
same,MIC in combination PMBN:ROB,[6]; [17],4 µg/mL
same,MIC,"[6]; Klebsiella pneumoniae, ATCC13883, read-out: MIC, single drug",> 256 µg/mL
same,"MIC, single drug",[7]; P. aeruginosa ATCC 27853,>256 µg/mL
same,DRI EDTA:ROB,"[7]; P. aeruginosa ATCC 27853, DRI of the labelled component",256
same,MIC in combination EDTA:ROB,[7]; [18],1.25 µg/mL
same,MIC in combination PMBN:ROB,[7]; [18],1 µg/mL
same,MIC,"[7]; Pseudomonas aeruginosa, ATCC27853, read-out: MIC, single drug",> 256 µg/mL
same,"MIC, single drug",[8]; P. mirabilis ATCC 43071,>256 µg/mL
same,DRI EDTA:ROB,"[8]; P. mirabilis ATCC 43071, DRI of the labelled component",256
same,MIC in combination EDTA:ROB,"[8]; P. mirabilis ATCC 43071, concentration of the labelled component",1.25 µg/mL
same,MIC,"[8]; Proteus mirabilis, ATCC43071, read-out: MIC, single drug",> 256 µg/mL
same,DRI EDTA:ROB,"[9]; P. putida ATCC 17428, DRI of the labelled component",256
same,MIC in combination EDTA:ROB,[9]; [19],1.25 µg/mL
same,MIC in combination PMBN:ROB,[9]; [19],1:1 μg/ml
same,MIC,"[9]; Pseudomonas putida, ATCC17428, read-out: MIC, single drug",> 256 µg/mL
same,"MBC/MIC, ROB in combination with EDTA",[10],≥2
same,MIC50,"[10]; Pseudomonas aeruginosa, canine otitis externa, read-out: MIC50, single drug",> 256 µg/mL
same,MIC90,"[10]; Pseudomonas aeruginosa, canine otitis externa, read-out: MIC90, single drug",> 256 µg/mL
same,"MIC range, single drug",[10]; canine otitis externa,>256 µg/mL
same,"MIC50, in combination of EDTA and ROB",[10]; [20],0.25 µg/mL
same,"MIC90, in combination of EDTA and ROB",[10]; [20],2 µg/mL
same,"MIC range, in combination of EDTA and ROB",[10]; [20],0.125 to 4 µg/mL
same,"MBC/MIC, ROB in combination with EDTA",[11],2
same,MIC50,"[11]; Streptococcus, canine otitis externa, read-out: MIC50, single drug",8 µg/mL
same,MIC90,"[11]; Streptococcus, canine otitis externa, read-out: MIC90, single drug",8 µg/mL
same,"MIC range, single drug",[11]; canine otitis externa,4 to 16 µg/mL
same,"MIC50, in combination of EDTA and ROB",[11]; [20],2 µg/mL
same,"MIC90, in combination of EDTA and ROB",[11]; [20],4 µg/mL
same,"MIC range, in combination of EDTA and ROB",[11]; [20],1 to 8 µg/mL
same,"MBC/MIC, single drug",[11]; footnote for BS not shown,1.75

# Source: PMC6494957 (Frontiers in Microbiology, 2019)
